The target of the assay is Neprilysin (Homo sapiens, UniProt P08473). Description: Compound was evaluated for inhibition of enkephalin degrading enzyme, neutral endopeptidase (NEP).

Here are results for one compound from ChEMBL document CHEMBL1134632, “Long lasting antinociceptive properties of enkephalin degrading enzyme (NEP and APN) inhibitor prodrugs” (J Med Chem, 2001).

As usually defined, the pKi is the Ki on a negative log10 scale, so that one unit is a factor of ten.

pKi: −log10 of the molar value.

Sequence of Neprilysin (P08473 whole entry): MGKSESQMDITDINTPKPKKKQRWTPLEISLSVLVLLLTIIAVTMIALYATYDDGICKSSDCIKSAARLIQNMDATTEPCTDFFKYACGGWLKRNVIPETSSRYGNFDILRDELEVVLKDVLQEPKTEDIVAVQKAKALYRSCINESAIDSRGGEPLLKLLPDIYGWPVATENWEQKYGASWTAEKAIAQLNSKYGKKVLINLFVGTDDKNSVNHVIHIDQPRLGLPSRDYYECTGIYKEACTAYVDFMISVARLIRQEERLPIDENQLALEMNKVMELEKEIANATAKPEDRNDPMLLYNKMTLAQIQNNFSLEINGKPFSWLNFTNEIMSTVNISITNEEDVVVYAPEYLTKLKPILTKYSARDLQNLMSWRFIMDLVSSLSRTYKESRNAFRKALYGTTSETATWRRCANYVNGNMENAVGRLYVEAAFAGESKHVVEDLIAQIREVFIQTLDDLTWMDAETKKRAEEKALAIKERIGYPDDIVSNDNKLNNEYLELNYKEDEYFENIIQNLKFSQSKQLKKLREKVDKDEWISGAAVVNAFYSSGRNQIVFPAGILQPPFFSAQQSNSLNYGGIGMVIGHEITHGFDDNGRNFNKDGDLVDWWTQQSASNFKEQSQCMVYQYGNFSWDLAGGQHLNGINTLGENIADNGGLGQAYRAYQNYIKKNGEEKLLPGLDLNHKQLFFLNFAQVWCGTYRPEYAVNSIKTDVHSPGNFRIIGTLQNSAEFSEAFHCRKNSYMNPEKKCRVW

The compound `CSCC[C@H](N)CSSC[C@@H](Cc1ccccc1)C(=O)NC(Cc1ccccc1)C(=O)OCc1ccccc1` (stereo partly specified) had a negative-log Ki (pKi) of 8.70.
